Test results published in ChEMBL document CHEMBL2086223 (Bioorg Med Chem Lett, 2012).
The source made the active and inactive calls. The calls are words filed in the database; no cut-off is given here.

Columns and labels:
[1] = biological target: T1, 5-hydroxytryptamine receptor 4 (Homo sapiens, UniProt Q13639); experiment: Agonist activity at human recombinant 5HT4c receptor expressed in HEK293 cells at 10-fold physiological level assessed as accumulation of cAMP relative to 5HT; format: functional, cell-based
Liver microsomes = experiment: (§1) Half life in rat liver microsomes; details: microsomes
[2] = biological target: T1, 5-hydroxytryptamine receptor 4; experiment: biochemical
Description: Displacement of [3H]GR113808 from human recombinant 5HT4c receptor expressed in HEK293 cells

Homo sapiens = organism: Homo sapiens; experiment: Selectivity ratio of Ki for human 5HT3A receptor to Ki for human 5HT4c receptor
[3] = as §1
hERG (KCNH2) = hERG (KCNH2) (Homo sapiens, UniProt Q12809); experiment: Inhibition of human ERG expressed in CHO cells at 3 uM; details: CHO cells expressing human ERG
[4] = Permeability across human Caco2 cells; details: Caco-2
[5] = biological target: T1, 5-hydroxytryptamine receptor 4
Rattus norvegicus = experiment: Induction of 5HT4-receptor mediated esophagal relaxation in iv dosed Sprague-Dawley rat; format: functional
in vivo [6] = details: Sprague-Dawley, rat, po, 5 mg/kg
[7] = biological target: 5-hydroxytryptamine receptor 2A (Homo sapiens) (UniProt P28223); experiment: Inhibition of 5HT2A receptor at 10 uM
[8] = Half life in Sprague-Dawley rat at 5 mg/kg, po; format: ADME, organism-based; parameters: dose 5 mg/kg, route oral; details: in vivo
in vivo [9] = details: Sprague-Dawley, rat, po, 5 mg/kg; remark: listed apart in the source
[10] = biological target: 5-hydroxytryptamine receptor 5A (Homo sapiens) (UniProt P47898); experiment: Inhibition of 5HT5A receptor at 10 uM
[11] = biological target: 5-hydroxytryptamine receptor 1B (Homo sapiens) (UniProt P28222); experiment: Inhibition of 5HT1B receptor at 10 uM
Cavia porcellus [12] = experiment: Prokinetic activity in guinea pig colon assessed as decrease in carmine red dye transit time at 0.3 mg/kg, sc relative to vehicle-treated control; format: functional, organism-based; parameters: dose 0.3 mg/kg
[13] = Elimination half life in healthy human administered QD; format: ADME, organism-based; details: in vivo, read-out: beta t1/2 (converted)
[14] = biological target: T2, 5-hydroxytryptamine receptor 7 (Homo sapiens, UniProt P34969); experiment: Inhibition of 5HT7 receptor at 10 uM
[15] = biological target: T2, 5-hydroxytryptamine receptor 7; experiment: Binding affinity to 5HT7 receptor
[16] = biological target: T3, 5-hydroxytryptamine receptor 2C (Homo sapiens) (UniProt P28335); experiment: Inhibition of 5HT2C receptor at 10 uM
T3 sequence (whole entry): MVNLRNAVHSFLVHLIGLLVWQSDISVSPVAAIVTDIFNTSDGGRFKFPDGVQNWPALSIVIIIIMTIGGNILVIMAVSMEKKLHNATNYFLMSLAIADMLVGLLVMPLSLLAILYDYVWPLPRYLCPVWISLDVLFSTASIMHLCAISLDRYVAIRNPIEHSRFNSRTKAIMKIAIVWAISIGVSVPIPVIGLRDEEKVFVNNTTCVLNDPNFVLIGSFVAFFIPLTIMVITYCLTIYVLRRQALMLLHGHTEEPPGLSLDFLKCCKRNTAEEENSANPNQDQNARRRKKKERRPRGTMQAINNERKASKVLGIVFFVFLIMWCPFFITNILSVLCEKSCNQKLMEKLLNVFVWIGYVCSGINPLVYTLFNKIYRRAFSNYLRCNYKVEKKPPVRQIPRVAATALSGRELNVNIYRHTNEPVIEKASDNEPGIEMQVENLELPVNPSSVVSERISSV

[17] = biological target: 5-hydroxytryptamine receptor 6 (Homo sapiens) (UniProt P50406); experiment: Inhibition of 5HT6 receptor at 10 uM
Cavia porcellus [18] = experiment: Prokinetic activity in sc dosed guinea pig colon assessed as increase in distance traveled by carmine red dye after 60 mins relative to vehicle-treated control; format: functional, organism-based
[19] = biological target: T4, 5-hydroxytryptamine receptor 3A (Homo sapiens) (UniProt P46098); experiment: Inhibition of 5HT3A receptor at 10 uM
T4 sequence (whole entry): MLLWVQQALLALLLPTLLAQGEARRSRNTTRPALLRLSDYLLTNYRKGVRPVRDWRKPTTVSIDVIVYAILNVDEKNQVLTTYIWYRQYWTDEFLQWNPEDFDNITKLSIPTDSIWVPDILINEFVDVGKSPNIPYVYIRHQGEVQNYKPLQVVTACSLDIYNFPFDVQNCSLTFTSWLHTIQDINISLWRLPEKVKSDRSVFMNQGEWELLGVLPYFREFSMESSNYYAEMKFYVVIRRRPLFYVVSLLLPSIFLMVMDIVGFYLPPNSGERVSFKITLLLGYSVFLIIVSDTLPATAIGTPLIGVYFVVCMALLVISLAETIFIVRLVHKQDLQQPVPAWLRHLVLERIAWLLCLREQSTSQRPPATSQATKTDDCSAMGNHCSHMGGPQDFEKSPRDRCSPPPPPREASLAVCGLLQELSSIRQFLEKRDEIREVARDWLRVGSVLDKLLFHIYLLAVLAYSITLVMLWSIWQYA

[20] = biological target: 5-hydroxytryptamine receptor 2B (Homo sapiens) (UniProt P41595); experiment: Inhibition of 5HT2B receptor at 10 uM
[21] = biological target: T5, 5-hydroxytryptamine receptor 1A (Homo sapiens) (UniProt P08908); experiment: Inhibition of 5HT1A receptor at 10 uM
T5 sequence (whole entry): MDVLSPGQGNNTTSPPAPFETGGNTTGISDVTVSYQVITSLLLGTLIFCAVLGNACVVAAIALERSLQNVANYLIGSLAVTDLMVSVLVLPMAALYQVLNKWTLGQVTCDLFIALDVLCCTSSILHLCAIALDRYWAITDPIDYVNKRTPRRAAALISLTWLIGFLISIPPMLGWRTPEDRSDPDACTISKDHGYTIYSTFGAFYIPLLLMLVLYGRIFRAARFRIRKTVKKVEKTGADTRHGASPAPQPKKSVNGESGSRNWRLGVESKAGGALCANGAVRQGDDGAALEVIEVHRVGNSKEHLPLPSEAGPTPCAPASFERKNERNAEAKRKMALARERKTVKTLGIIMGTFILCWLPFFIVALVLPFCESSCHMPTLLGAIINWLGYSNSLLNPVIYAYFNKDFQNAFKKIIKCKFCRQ

[22] = biological target: 5-hydroxytryptamine receptor 1D (Homo sapiens) (UniProt P28221); experiment: Inhibition of 5HT1D receptor at 10 uM
[23] = biological target: 5-hydroxytryptamine receptor 4 (Cavia porcellus, UniProt O70528); experiment: Agonist activity at 5HT4 receptor in guinea pig colonic longitudinal muscle/myenteric plexus assessed as contraction
Chain of 5-hydroxytryptamine receptor 4 (Cavia porcellus, UniProt O70528) (O70528 whole entry): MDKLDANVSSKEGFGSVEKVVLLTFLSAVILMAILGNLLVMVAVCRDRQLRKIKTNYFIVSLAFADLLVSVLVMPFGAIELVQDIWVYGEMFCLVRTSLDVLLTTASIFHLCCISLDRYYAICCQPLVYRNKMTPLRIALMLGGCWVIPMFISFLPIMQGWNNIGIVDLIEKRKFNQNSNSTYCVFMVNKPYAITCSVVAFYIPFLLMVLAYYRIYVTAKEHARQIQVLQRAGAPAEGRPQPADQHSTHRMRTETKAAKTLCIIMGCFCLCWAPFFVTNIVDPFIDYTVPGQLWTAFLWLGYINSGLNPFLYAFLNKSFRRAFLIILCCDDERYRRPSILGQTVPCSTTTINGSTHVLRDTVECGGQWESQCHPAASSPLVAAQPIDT

Chain of hERG (KCNH2) (Q12809 whole entry): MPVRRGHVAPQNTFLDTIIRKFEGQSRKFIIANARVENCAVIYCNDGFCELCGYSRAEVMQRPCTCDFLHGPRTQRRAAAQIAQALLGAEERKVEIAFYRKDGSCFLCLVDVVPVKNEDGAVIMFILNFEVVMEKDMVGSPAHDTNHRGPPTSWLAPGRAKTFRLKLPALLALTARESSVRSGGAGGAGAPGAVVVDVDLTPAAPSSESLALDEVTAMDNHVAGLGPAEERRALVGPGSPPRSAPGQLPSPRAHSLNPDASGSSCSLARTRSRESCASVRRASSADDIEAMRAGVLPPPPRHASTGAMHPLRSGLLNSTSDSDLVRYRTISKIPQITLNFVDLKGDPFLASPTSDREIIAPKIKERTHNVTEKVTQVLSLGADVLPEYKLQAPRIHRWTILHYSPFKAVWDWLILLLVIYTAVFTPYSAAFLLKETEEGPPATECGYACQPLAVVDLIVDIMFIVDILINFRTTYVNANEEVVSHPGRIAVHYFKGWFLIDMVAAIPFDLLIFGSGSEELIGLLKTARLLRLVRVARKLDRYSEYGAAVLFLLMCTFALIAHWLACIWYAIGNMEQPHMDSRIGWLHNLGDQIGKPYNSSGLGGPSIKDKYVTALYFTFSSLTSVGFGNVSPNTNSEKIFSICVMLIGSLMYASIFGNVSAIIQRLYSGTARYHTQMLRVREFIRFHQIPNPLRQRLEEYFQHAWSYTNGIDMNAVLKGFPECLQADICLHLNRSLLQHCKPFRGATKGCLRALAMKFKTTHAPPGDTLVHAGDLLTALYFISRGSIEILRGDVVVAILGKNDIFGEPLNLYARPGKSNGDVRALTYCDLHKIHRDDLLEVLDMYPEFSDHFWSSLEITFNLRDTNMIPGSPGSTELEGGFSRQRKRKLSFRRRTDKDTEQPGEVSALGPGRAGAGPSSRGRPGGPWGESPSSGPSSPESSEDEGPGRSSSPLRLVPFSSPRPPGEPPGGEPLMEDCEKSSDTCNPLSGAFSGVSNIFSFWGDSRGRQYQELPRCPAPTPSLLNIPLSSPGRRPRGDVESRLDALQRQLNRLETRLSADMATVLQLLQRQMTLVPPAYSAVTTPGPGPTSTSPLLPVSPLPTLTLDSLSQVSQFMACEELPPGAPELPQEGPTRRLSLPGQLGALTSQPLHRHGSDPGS
T1 sequence (Q13639 whole entry): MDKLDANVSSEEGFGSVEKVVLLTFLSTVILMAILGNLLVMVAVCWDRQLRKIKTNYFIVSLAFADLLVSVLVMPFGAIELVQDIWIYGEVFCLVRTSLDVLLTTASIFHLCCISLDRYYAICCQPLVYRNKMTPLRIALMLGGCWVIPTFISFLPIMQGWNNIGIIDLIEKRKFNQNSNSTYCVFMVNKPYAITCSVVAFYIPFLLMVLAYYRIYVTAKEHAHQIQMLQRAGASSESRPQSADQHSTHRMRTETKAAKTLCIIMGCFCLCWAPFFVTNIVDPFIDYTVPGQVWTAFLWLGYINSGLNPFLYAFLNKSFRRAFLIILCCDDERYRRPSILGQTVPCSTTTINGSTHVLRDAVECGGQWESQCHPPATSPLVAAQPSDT
T2 sequence (P34969 whole entry): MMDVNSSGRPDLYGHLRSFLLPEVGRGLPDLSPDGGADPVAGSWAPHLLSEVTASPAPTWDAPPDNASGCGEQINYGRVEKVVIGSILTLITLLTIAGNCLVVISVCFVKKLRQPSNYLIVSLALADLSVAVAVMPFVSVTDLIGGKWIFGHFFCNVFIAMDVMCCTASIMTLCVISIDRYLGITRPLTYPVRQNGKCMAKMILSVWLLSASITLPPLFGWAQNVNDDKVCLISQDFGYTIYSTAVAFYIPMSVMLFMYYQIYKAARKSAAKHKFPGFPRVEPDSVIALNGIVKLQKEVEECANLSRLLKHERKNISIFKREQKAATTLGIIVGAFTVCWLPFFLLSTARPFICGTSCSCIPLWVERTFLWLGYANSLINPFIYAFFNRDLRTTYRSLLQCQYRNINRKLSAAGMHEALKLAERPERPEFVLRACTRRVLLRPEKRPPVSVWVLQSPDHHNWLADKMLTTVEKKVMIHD
Chain of 5-hydroxytryptamine receptor 6 (Homo sapiens) (P50406 whole entry): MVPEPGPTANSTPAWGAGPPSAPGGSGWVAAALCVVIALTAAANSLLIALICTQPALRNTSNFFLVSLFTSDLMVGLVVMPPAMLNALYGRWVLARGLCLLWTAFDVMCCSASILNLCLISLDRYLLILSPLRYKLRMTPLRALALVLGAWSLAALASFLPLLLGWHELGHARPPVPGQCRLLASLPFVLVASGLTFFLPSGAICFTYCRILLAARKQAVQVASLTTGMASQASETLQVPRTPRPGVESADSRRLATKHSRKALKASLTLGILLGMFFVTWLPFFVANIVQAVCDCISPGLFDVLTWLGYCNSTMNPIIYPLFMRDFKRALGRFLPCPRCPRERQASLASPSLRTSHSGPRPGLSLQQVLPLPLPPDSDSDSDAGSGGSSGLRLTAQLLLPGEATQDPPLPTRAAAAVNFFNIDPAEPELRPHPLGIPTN
Chain of 5-hydroxytryptamine receptor 1B (Homo sapiens) (P28222 whole entry): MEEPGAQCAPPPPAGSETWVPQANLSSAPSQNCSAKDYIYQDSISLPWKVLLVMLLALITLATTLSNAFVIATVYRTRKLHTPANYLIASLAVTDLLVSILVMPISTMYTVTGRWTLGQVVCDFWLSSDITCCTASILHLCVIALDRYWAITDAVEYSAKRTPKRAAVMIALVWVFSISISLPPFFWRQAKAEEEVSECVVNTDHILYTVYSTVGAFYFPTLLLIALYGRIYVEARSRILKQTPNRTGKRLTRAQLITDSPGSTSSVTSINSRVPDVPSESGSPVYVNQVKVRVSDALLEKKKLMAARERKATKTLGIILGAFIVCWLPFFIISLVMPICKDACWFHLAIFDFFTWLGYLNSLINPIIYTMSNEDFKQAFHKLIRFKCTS
Chain of 5-hydroxytryptamine receptor 2A (Homo sapiens) (P28223 whole entry): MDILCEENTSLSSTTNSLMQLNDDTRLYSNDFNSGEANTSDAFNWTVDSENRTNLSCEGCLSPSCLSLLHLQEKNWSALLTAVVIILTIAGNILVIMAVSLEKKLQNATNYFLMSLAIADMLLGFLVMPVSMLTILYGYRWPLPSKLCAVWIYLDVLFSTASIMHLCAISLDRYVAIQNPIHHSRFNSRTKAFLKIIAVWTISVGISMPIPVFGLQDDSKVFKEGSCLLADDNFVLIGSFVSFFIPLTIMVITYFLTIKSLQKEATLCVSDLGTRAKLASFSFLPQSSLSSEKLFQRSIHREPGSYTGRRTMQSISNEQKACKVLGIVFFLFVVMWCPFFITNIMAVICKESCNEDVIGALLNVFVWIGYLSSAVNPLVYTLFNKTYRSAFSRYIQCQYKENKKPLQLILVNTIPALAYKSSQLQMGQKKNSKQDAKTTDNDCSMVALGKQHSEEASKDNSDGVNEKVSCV
Chain of 5-hydroxytryptamine receptor 2B (Homo sapiens) (P41595 whole entry): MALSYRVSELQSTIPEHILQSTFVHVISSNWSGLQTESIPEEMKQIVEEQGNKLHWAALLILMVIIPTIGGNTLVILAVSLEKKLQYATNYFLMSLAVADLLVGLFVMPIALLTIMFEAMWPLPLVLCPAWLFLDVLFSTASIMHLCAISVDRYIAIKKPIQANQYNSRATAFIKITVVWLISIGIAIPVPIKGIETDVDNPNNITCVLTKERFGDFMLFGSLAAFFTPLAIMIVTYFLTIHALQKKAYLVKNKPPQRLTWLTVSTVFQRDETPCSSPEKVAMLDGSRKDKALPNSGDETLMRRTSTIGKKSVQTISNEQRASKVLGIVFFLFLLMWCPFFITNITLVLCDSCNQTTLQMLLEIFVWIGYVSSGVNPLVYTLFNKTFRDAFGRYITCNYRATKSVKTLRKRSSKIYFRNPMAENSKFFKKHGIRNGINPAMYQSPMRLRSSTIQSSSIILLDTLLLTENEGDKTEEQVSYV
Chain of 5-hydroxytryptamine receptor 1D (Homo sapiens) (P28221 whole entry): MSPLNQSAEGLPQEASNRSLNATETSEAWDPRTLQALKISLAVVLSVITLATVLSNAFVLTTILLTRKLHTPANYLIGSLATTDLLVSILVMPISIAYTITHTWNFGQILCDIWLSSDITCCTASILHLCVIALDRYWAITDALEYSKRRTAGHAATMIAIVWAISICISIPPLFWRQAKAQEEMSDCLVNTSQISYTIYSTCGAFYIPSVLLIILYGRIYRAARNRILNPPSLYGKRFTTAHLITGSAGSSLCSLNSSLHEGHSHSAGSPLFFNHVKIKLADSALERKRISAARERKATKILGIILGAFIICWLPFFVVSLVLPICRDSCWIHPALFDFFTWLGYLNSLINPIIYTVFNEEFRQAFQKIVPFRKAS
Chain of 5-hydroxytryptamine receptor 5A (Homo sapiens) (P47898 whole entry): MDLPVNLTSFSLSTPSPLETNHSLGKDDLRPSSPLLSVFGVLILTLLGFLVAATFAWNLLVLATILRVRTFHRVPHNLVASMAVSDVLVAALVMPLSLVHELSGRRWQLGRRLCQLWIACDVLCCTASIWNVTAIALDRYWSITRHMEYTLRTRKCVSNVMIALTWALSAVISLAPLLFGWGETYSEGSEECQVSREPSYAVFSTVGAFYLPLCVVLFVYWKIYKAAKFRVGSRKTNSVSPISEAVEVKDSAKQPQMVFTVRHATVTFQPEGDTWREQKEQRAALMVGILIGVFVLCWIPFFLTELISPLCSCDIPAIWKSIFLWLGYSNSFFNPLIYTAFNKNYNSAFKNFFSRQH

SMILES | Intrinsic activity [1] | Ki [2] [nM] | Ratio Ki (Homo sapiens) | Papp [4] [×10⁻⁶ cm/s] | half-life ([3]; liver microsomes) [min] | EC50 [5] [nM] | also measured
COc1cc(N)c(Cl)cc1C(=O)N[C@H]1CCN(CCCOc2ccc(F)cc2)C[C@H]1OC (relative stereo) [REL-CISAPRIDE] | 71 | – | – | – | – | – | t1/2 (Liver microsomes): 47 min
COC(=O)NCC(O)CN1[C@@H]2CC[C@H]1C[C@@H](NC(=O)c1cc3ccccc3n(C(C)C)c1=O)C2 (mixture of isomers) | – | 50.1 | 1600 | 35 | – | – | half-life ([3]; microsomes): > 90 min; inhibition at 3 µM (hERG (KCNH2)): 74%
CC(C)n1c(=O)c(C(=O)N[C@H]2C[C@H]3CC[C@@H](C2)N3CC(O)CNC(=O)N(C)C)cc2ccccc21 (mixture of isomers) | – | 100 | 860 | 3 | > 90 | – | –
CNC(=O)N(C)CC(O)CN1[C@@H]2CC[C@H]1C[C@@H](NC(=O)c1cc3ccccc3n(C(C)C)c1=O)C2 (mixture of isomers) | 95% | 100 | 870 | – | – | 31.6 | –
CC(C)n1c(=O)c(C(=O)N[C@H]2C[C@H]3CC[C@@H](C2)N3CC(O)CN(C)C(=O)N(C)C)cc2ccccc21 (mixture of isomers) | 87% | 50.1 | 260 | 33 | > 90 | 20 | inhibition at 3 µM (hERG (KCNH2)): 64%
CC(C)n1c(=O)c(C(=O)N[C@H]2C[C@H]3CC[C@@H](C2)N3CC(O)CN(C)S(C)(=O)=O)cc2ccccc21 (mixture of isomers) | 96% | – | – | – | > 90 | – | –
CC(C)n1c(=O)c(C(=O)N[C@H]2C[C@H]3CC[C@@H](C2)N3C[C@H](O)CN(C)S(C)(=O)=O)cc2ccccc21 | 97% | – | – | – | > 90 | – | –
COC(=O)N(C)CC(O)CN1[C@@H]2CC[C@H]1C[C@@H](NC(=O)c1cc3ccccc3n(C(C)C)c1=O)C2 (mixture of isomers) | 84% | 39.8 | 710 | 35 | > 90 | 10 | inhibition at 3 µM (hERG (KCNH2)): 40%
CCCCCNC(=N)N/N=C/c1c[nH]c2ccc(OC)cc12 [TEGASEROD] | 92% | – | 580 | – | > 90 | 2.51 | ED50 (Rattus norvegicus): 0.011 mg/kg
CC(=O)NCC(O)CN1[C@@H]2CC[C@H]1C[C@@H](NC(=O)c1cc3ccccc3n(C(C)C)c1=O)C2 (mixture of isomers) | 96% | 31.6 | 2200 | 6 | > 90 | 6.31 | –
CC(C)n1c(=O)c(C(=O)N[C@H]2C[C@H]3CC[C@@H](C2)N3C[C@@H](O)CN2CCN(S(C)(=O)=O)CC2)cc2ccccc21 | 114% | – | 7400 | – | – | – | half-life ([3]; microsomes): > 90 min
CC(C)n1c(=O)c(C(=O)N[C@H]2C[C@H]3CC[C@@H](C2)N3CC(O)CN(C)C(N)=O)cc2ccccc21 (mixture of isomers) | 95% | 50.1 | 1800 | 1 | – | 20 | half-life ([3]; microsomes): > 90 min
CC(C)n1c(=O)c(C(=O)N[C@H]2C[C@H]3CC[C@@H](C2)N3CC(O)CNC(N)=O)cc2ccccc21 (mixture of isomers) | 82% | 15.8 | 3300 | – | > 90 | 5.01 | –
CC(=O)N1CCN(CCN2[C@@H]3CC[C@H]2C[C@@H](NC(=O)c2nn(C(C)C)c4ccccc24)C3)CC1 | – | – | 980 | – | > 90 | – | –
CC(=O)N(C)CC(O)CN1[C@@H]2CC[C@H]1C[C@@H](NC(=O)c1cc3ccccc3n(C(C)C)c1=O)C2 (mixture of isomers) | 95% | 39.8 | 1500 | 16 | > 90 | 12.6 | inhibition at 3 µM (hERG (KCNH2)): 11%
CC(C)n1c(=O)c(C(=O)N[C@H]2C[C@H]3CC[C@@H](C2)N3CC(O)CNS(C)(=O)=O)cc2ccccc21 (mixture of isomers) | 107% | 20 | 1200 | – | – | 7.94 | inhibition at 3 µM (hERG (KCNH2)): 10%
CC(C)n1c(=O)c(C(=O)N[C@H]2C[C@H]3CC[C@@H](C2)N3C[C@@H](O)CN(C)S(C)(=O)=O)cc2ccccc21 | 95% | – | – | – | > 90 | – | Cmax (in vivo [6]): 160 ng/mL; inhibition [7]: < 50%; half-life [8]: 114 min; AUC(0-t) (in vivo [9]): 460 ng·h/mL; inhibition [10]: < 50%; inhibition [11]: < 50%; Activity (Cavia porcellus [12]): Active; Activity (Rattus norvegicus): Dose-dependent effect; ED50 (Rattus norvegicus): 0.025 mg/kg; half-life [13]: 720 min; inhibition [14]: < 50%; Ki [15]: < 100 nM; inhibition [16]: < 50%; inhibition [17]: < 50%; Activity (Cavia porcellus [18]): Active; inhibition [19]: < 50%; inhibition [20]: < 50%; inhibition [21]: < 50%; inhibition [22]: < 50%; EC50 [23]: 12.6 nM
CNC(=O)NCC(O)CN1[C@@H]2CC[C@H]1C[C@@H](NC(=O)c1cc3ccccc3n(C(C)C)c1=O)C2 (mixture of isomers) | 82% | 25.1 | 2400 | – | > 90 | 12.6 | –
